The text below walks through data of patent publication US20080008707A1, “Denatured collagen peptides and uses thereof” (Cell-Matrix, Inc., priority 2006, published 2008).

Test [1] has as its system D93 binding to human denatured-collagen IV. Briefly: Competition ELISA: synthetic peptides blocking D93 binding to heat denatured collagen IV. The procedure:
(§1) The ELISA was conducted as follows: wells of a 96-well microtiter plate (Immulon, 4 HBX flat-bottomed, Thermo Electron Corporation, Waltham, Mass.) were coated with 100 μL/well of dn-collagen IV at 10 μg/mL in Phosphate Buffered Saline (PBS) overnight at 4° C. The plate was washed 3 times (3×) with PBS containing 0.05% (v/v) Tween-20 (PBST) using an automated plate washer.
(§2) The plate was blocked by adding 300 μL/well of 1% BSA (w/v) in PBS for 1 hour at 25° C. followed by washing 3× in PBST as above.
(§3) Solutions of D93 or HUI77 were prepared with various concentrations of peptide or antibody inhibitor and incubate for 15 minutes. D93 or HUI77 was prepared at 200 ng/mL in 1% BSA/PBS.
(§4) For antibody blocking studies using synthetic peptides: peptide inhibitor stock solutions were prepared at 2 mM, 0.2 mM, 0.02 mM, and 0.002 mM in 1% BSA/PBS. 500 μL of a 2 mM peptide solution in 1% BSA/PBS was prepared and diluted 1:10 in 500 μL a total of three times to make peptide inhibitor concentrations.
(§5) 200 μL of D93 or HUI77 at 200 ng/mL solution was combined with 200 μL of peptide or antibody inhibitor solution and incubated for 15 minutes at room temperature.
(§6) D93 or HUI77 with various concentrations of inhibitors (2 mM, 0.2 mM, 0.02 mM, and 0.002 mM) were added to microplate wells and incubated for 1 hour at 25° C. The plate was washed 3× in PBST as above.
(§7) To each microtiter plate well, 100 μL of diluted anti-human IgG or anti-mouse IgM conjugated to horseradish peroxidase (HRP) in PBST was added and incubated for one hour at 25° C.: (a) for D93: Goat anti-human IgG-HRP (Jackson ImmunoResearch, Catalog No. 109-035-088) was used at 1:20,000 and (b) for HUI77: Goat anti-mouse IgM-HRP was used at 1:4,000. Plates were washed 3× in PBST as above.
(§8) Tetramethylbenzidine (TMB) substrate (100 μL; Pierce Chemicals)) was added to wells and the plates were allowed to develop at room temperature for 15 minutes in the dark. Substrate development was stopped by adding 50 μL/well of 2N H2SO4. The microtiter […] plates were read at 450 nm within five minutes of adding the H2SO4. Reactivity was measured with a microplate reader (Molecular Devices, Sunnyvale, Calif.) at a wavelength of 450 nm and analyzed using SOFTMax® PRO4.0 (Molecular Devices). All samples were tested in triplicate.
(§9) Individual peptides with amino acid substitutions and deletions were also synthesized based on the primary and secondary peptide arrays. […] The inhibitory activity of the individual peptides was tested by ELISA as previously described to measure binding of D93 or HUI77 to denatured collagen where peptides and antibodies were prepared at a 2× concentration and pre-incubated for 15 minutes prior to adding to microtiter plates coated with dn-collagen.
(§10) 96-well plates were coated with 100 μL/well of denatured (dn) collagen IV at 10 μg/mL in phosphate buffered saline (PBS) overnight at 4° C. followed by washing the plates in an automated plate washer 3 times in PBS containing 0.05% (v/v) Tween-20 (PBST). Non-specific binding was prevented by blocking the wells by adding 300 μL/well of 1% bovine serum albumin (BSA) (w/v) in PBS for 1 hour (hr) at 25° C. The plates were washed as above.
(§11) Solutions of D93 and HUI77 antibodies were prepared with various concentrations of inhibitor and incubated for 15 minutes. Briefly, 20 mLs of D93 or HUI77 were prepared at 200 ng/mL in 1% BSA/PBS. Solutions of peptide inhibitors (2 mM, 0.2 mM, […]) were prepared in 1% BSA/PBS. Equal volumes of antibodies and peptide inhibitors were combined: 200 μL of D93 or HUI77 (200 ng/mL solution) with 200 μL of each peptide solution.
(§12) 100 μL/well of D93 or HUI77 at 100 ng/mL with various concentrations of inhibitors were added to the wells in triplicate and incubated for 1 hour at 25° C. The plates were washed as described above.
(§13) 100 μL/well of secondary horseradish peroxidase (HRP)-conjugated antibody in PBST was added to each well and incubated for 1 hour (hr) at 25° C. […]
(In an ELISA, binding on a coated surface is turned into a signal by an enzyme label.)

Test [2] relates to HUI77 binding to denatured collagen IV. Nature of the test: Competition ELISA: synthetic peptides blocking HUI77 binding to heat denatured collagen IV. The arrangement: species or system human. Here is the method: as §1, §2, §3, §4, §5, §6, §7, §8, §9, §10, §11, §12, §13
[3] abbreviates: peptide inhibitor concentration 1 μM, average of two studies, vs 1% BSA/PBS alone.
[4] abbreviates: peptide inhibitor concentration 10 μM, average of two studies, vs 1% BSA/PBS alone.
Where [5] appears, read: peptide inhibitor concentration 100 μM, average of two studies, vs 1% BSA/PBS alone.
[6] abbreviates: peptide inhibitor concentration 1000 μM, asterisk (*): data from a separate assay.
Where [7] appears, read: peptide inhibitor concentration 1000 μM, average of two studies, vs 1% BSA/PBS alone.
[8] abbreviates: peptide inhibitor concentration 10 μM, average of two studies.
[9] abbreviates: peptide inhibitor concentration 100 μM, average of two studies.
Setting [10] is: peptide inhibitor concentration 1000 μM, average of two studies.
Where [11] appears, read: peptide inhibitor concentration 100 μM, asterisk (*): data from a separate assay.

Marks after values point to notes of the source that are not given here. Square brackets hold non-standard residues; d marks the D form. Ends that are not written are not given here. Hyp = O=C(O)[C@@H]1C[C@@H](O)CN1

For the substance “CTWPRHHTTDALL [SEQ ID NO: 39, reference compound]”, the “% INHIBITION OF BINDING OF D93 TO HUMAN DENATURED-COLLAGEN IV” value in test [1] (setting [3]) is 4.5%; in test [1] (setting [4]), 1%; in test [1] (setting [5]) it was 0%; in test [1] (setting [6]) it was 4.9%; in test [1] (setting [7]) it was 3.5%. Also, the “% INHIBITION OF BINDING OF HUI77 TO DENATURED COLLAGEN IV” value in test [2] (setting [8]) is recorded as 6.5%; in test [2] (setting [9]), 6.5%; in test [2] (setting [6]), 11.1%; in test [2] (setting [10]), 6.5%.

As for “F-Hyp-G-P-Hyp-G-P-D-G-L-P-G-S-M-G-P-Hyp-G (F[Hyp]GP[Hyp]GPDGLPGSMGP[Hyp]G) [SEQ ID NO: 36]”, the “% INHIBITION OF BINDING OF D93 TO HUMAN DENATURED-COLLAGEN IV” value in test [1] (setting [3]) came out at 11%; in test [1] (setting [4]), 43%; in test [1] (setting [5]), 89.5%; in test [1] (setting [7]), 93.5%. Further, the “% INHIBITION OF BINDING OF HUI77 TO DENATURED COLLAGEN IV” value in test [2] (setting [8]) came to 4.5%; in test [2] (setting [9]), 9%; in test [2] (setting [10]) it was 62%.

G-P-Hyp-G (GP[Hyp]G) [SEQ ID NO: 34]: the “% INHIBITION OF BINDING OF D93 TO HUMAN DENATURED-COLLAGEN IV” value in test [1] (setting [3]) came to 9.5%; in test [1] (setting [4]) it was 6.5%; in test [1] (setting [5]), 11%; in test [1] (setting [7]), 52%. Further, the results for the “% INHIBITION OF BINDING OF HUI77 TO DENATURED COLLAGEN IV” value in test [2] (setting [8]), in test [2] (setting [9]) and in test [2] (setting [10]) were 6.5%, 9% and 14%, respectively.

“G-P-Hyp-G-P-Hyp-G-P-Y (GP[Hyp]GP[Hyp]GPY) [SEQ ID NO: 30]”: the “% INHIBITION OF BINDING OF D93 TO HUMAN DENATURED-COLLAGEN IV” value in test [1] (setting [3]) is 33%; in test [1] (peptide inhibitor concentration 10 μM, asterisk (*): data from a separate assay), 79.9* %; in test [1] (setting [4]), 82.5, %; in test [1] (setting [11]), 90.3%; in test [1] (setting [5]), 94%; in test [1] (setting [7]), 94%. For the same substance, the “% INHIBITION OF BINDING OF HUI77 TO DENATURED COLLAGEN IV” value in test [2] (setting [8]) is 8.5%; in test [2] (setting [11]), 0%; in test [2] (setting [9]), 12%; in test [2] (setting [6]), 63%; in test [2] (setting [10]) it was 78%.

Consider GPPG [SEQ ID NO: 35], for which the “% INHIBITION OF BINDING OF D93 TO HUMAN DENATURED-COLLAGEN IV” value in test [1] (setting [3]) is 7%; in test [1] (setting [4]) it was 6%; in test [1] (setting [5]), 3.5%; in test [1] (setting [7]), 7.5%. Besides, the “% INHIBITION OF BINDING OF HUI77 TO DENATURED COLLAGEN IV” value in test [2] (setting [8]) was determined as 2.5%; in test [2] (setting [9]), 8%; in test [2] (setting [10]), 3.5%.

As to “GPPGPPG (GPXGPXG; MOD_RES (3) Hydroxyproline; MOD_RES (6) Hydroxyproline) [SEQ ID NO: 32]”, the “% INHIBITION OF BINDING OF D93 TO HUMAN DENATURED-COLLAGEN IV” value amounted to 8% in test [1] (peptide inhibitor concentration 1 μM, average of two studies, vs 1% BSA/PBS alone, listed as 15 (32), 1 µM); 17% in test [1] (peptide inhibitor concentration 10 μM, average of two studies, vs 1% BSA/PBS alone, listed as 15 (32), 10 µM); 64% in test [1] (peptide inhibitor concentration 100 μM, average of two studies, vs 1% BSA/PBS alone, listed as 15 (32), 100 µM); 92.5% in test [1] (peptide inhibitor concentration 1000 μM, average of two studies, vs 1% BSA/PBS alone, listed as 15 (32), 1000 µM). Moreover, the “% INHIBITION OF BINDING OF HUI77 TO DENATURED COLLAGEN IV” value in test [2] (peptide inhibitor concentration 10 μM, average of two studies, listed as 15 (32), 10 µM) was 6%; in test [2] (peptide inhibitor concentration 100 μM, average of two studies, listed as 15 (32), 100 µM), 7.5%; in test [2] (peptide inhibitor concentration 1000 μM, average of two studies, listed as 15 (32), 1000 µM), 77%.

With GPPGPPG [SEQ ID NO: 33], the “% INHIBITION OF BINDING OF D93 TO HUMAN DENATURED-COLLAGEN IV” value in test [1] (peptide inhibitor concentration 1 μM, average of two studies, vs 1% BSA/PBS alone, listed as 23 (33), 1 µM) amounted to 5%; in test [1] (peptide inhibitor concentration 10 μM, average of two studies, vs 1% BSA/PBS alone, listed as 23 (33), 10 µM) it was 4.5%; in test [1] (peptide inhibitor concentration 100 μM, average of two studies, vs 1% BSA/PBS alone, listed as 23 (33), 100 µM), 1.5%; in test [1] (peptide inhibitor concentration 1000 μM, average of two studies, vs 1% BSA/PBS alone, listed as 23 (33), 1000 µM) it was 6.5%. In addition, the “% INHIBITION OF BINDING OF HUI77 TO DENATURED COLLAGEN IV” value is 1.5% in test [2] (peptide inhibitor concentration 10 μM, average of two studies, listed as 23 (33), 10 µM); 2% in test [2] (peptide inhibitor concentration 100 μM, average of two studies, listed as 23 (33), 100 µM); 1% in test [2] (peptide inhibitor concentration 1000 μM, average of two studies, listed as 23 (33), 1000 µM).

In the case of “GPPGPPGP (GPXGPXGP; MOD_RES (3) Hydroxyproline; MOD_RES (6) Hydroxyproline) [SEQ ID NO: 31]”, the “% INHIBITION OF BINDING OF D93 TO HUMAN DENATURED-COLLAGEN IV” value in test [1] (setting [3]) came out at 9.5%; in test [1] (setting [4]), 21%; in test [1] (setting [5]) it was 77%; in test [1] (setting [7]), 92.5%. For the same substance, the “% INHIBITION OF BINDING OF HUI77 TO DENATURED COLLAGEN IV” value in test [2] (setting [8]) was 7.5%; in test [2] (setting [9]), 12%; in test [2] (setting [10]) it was 44%.

Regarding “Hyp-G-A-K-G-L-P-G-P-Hyp-G-P-Hyp-G-P-Y [SEQ ID NO: 2]”, the “% INHIBITION OF BINDING OF D93 TO HUMAN DENATURED-COLLAGEN IV” value in test [1] (setting [3]) is 30%; in test [1] (setting [4]), 81%; in test [1] (setting [5]), 93.5%; in test [1] (setting [7]), 93.5%. Besides, the “% INHIBITION OF BINDING OF HUI77 TO DENATURED COLLAGEN IV” value in test [2] (setting [8]) worked out at 7.5%; in test [2] (setting [9]), 18%; in test [2] (peptide inhibitor concentration 1000 μM, average of two studies, 1000 µM), 86%; in test [2] (peptide inhibitor concentration 1000 μM, average of two studies, listed as 12 (2), 1000 µM), 86.5%.
